Assay [1] has as its target T1, Histone deacetylase 2 (Homo sapiens, UniProt Q92769). As to the kind of experiment: Inhibition of recombinant human HDAC2 expressed in baculovirus infected Hi-5 insect cells using Ac-Lys-Tyr-Lys (epsilon-acetyl)-AMC as substrate incubated for 3 to 24 hrs by fluorescence based plate reader analysis.
For assay [2], the target named is T2, Histone deacetylase 1 (Homo sapiens, UniProt Q13547). Kind of assay: Inhibition of recombinant human HDAC1 expressed in baculovirus infected Hi-5 insect cells using Ac-Lys-Tyr-Lys (epsilon-acetyl)-AMC as substrate incubated for 3 to 24 hrs by fluorescence based plate reader analysis.
T2 sequence (Q13547 whole entry): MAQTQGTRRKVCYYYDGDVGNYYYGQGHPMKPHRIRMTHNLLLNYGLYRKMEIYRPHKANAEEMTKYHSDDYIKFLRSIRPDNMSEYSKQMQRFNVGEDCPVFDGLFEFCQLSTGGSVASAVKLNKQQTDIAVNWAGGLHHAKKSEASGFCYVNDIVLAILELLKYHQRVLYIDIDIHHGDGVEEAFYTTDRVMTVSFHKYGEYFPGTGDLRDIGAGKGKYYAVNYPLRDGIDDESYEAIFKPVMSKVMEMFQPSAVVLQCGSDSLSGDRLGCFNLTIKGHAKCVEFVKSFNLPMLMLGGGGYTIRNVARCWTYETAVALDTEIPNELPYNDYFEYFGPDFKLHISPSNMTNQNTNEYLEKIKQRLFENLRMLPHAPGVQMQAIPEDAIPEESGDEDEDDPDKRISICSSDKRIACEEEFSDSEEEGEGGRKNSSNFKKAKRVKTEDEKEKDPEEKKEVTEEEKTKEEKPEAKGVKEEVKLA
Assay [3] concerns A549. Kind of assay: Cytotoxicity against human A549 cells assessed as inhibition of cell proliferation incubated for 72 hrs by MTT assay. Type of assay: functional, cell-based. Particulars: A549, 72 h. For orientation: Tetrazolium assays rely on reduction of a dye to a coloured formazan, in cell work by metabolically active cells.
For assay [4], the system named is HCT-116. Kind of assay: Cytotoxicity against human HCT-116 cells assessed as inhibition of cell proliferation incubated for 72 hrs by MTT assay. The following applies: HCT-116, 72 h. Type of assay: functional, cell-based.
For assay [5], the target named is T3, Histone deacetylase 3 (Homo sapiens, UniProt O15379). Kind of assay: Inhibition of recombinant human HDAC3 expressed in baculovirus infected Hi-5 insect cells using Ac-Lys-Tyr-Lys (epsilon-acetyl)-AMC as substrate incubated for 3 to 24 hrs by fluorescence based plate reader analysis.
T3 sequence (O15379 whole entry): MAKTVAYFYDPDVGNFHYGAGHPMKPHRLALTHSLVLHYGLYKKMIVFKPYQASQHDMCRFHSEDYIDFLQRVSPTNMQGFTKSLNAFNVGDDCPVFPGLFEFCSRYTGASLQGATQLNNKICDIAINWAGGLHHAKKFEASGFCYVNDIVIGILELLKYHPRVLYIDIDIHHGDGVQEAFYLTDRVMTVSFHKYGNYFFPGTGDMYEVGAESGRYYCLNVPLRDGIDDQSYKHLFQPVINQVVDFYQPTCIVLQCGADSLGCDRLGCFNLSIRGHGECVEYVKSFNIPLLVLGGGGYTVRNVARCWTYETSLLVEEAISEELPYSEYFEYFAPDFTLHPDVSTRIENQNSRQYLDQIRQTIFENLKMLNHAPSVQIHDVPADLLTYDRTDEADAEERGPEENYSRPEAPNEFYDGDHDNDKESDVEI
The test system of assay [6] is DU-145. As to the kind of experiment: Antiproliferative activity against human DU-145 cells assessed as cell growth inhibition incubated for 48 hrs by MTT assay. Particulars: DU-145, 48 h. Type of assay: functional, cell-based.
Assay [7] relates to HepG2. As to the kind of experiment: Antiproliferative activity against human HepG2 cells assessed as cell growth inhibition incubated for 48 hrs by MTT assay. It is filed as functional, cell-based. The following applies: HepG2, 48 h.
The target of assay [8] is T2, Histone deacetylase 1. As to the kind of experiment: Inhibition of full-length recombinant human HDAC1 expressed in baculovirus infected Hi-5 insect cells using AcLys-Tyr-Lys(e-acetyl)-AMC as substrate incubated for 24 hrs by enzymatic assay.
In assay [9] the test system is K562. As to the kind of experiment: Antiproliferative activity against human K562 cells assessed as cell growth inhibition incubated for 48 hrs by MTT assay. It is filed as functional, cell-based. Particulars: K562, 48 h.
Assay [10] has as its target Protein kinase C alpha type (Mus musculus, UniProt P20444). As to the kind of experiment: Binding affinity to mouse PKC-alpha assessed as inhibition constant.
Assay [11] has as its target T2, Histone deacetylase 1. Kind of assay: Inhibition of HDAC1 (unknown origin).
For assay [12], the target named is Protein-glutamine gamma-glutamyltransferase (Homo sapiens, UniProt P21980). As to the kind of experiment: Inhibition of recombinant human TG2 using N-Cbz-Glu(gamma-p-nitrophenylester) as substrate measured for 10 mins by absorbance based microplate reader analysis.
The target of assay [13] is T4, Protein deacetylase HDAC6 (Homo sapiens, UniProt Q9UBN7).
T4 sequence (Q9UBN7 whole entry): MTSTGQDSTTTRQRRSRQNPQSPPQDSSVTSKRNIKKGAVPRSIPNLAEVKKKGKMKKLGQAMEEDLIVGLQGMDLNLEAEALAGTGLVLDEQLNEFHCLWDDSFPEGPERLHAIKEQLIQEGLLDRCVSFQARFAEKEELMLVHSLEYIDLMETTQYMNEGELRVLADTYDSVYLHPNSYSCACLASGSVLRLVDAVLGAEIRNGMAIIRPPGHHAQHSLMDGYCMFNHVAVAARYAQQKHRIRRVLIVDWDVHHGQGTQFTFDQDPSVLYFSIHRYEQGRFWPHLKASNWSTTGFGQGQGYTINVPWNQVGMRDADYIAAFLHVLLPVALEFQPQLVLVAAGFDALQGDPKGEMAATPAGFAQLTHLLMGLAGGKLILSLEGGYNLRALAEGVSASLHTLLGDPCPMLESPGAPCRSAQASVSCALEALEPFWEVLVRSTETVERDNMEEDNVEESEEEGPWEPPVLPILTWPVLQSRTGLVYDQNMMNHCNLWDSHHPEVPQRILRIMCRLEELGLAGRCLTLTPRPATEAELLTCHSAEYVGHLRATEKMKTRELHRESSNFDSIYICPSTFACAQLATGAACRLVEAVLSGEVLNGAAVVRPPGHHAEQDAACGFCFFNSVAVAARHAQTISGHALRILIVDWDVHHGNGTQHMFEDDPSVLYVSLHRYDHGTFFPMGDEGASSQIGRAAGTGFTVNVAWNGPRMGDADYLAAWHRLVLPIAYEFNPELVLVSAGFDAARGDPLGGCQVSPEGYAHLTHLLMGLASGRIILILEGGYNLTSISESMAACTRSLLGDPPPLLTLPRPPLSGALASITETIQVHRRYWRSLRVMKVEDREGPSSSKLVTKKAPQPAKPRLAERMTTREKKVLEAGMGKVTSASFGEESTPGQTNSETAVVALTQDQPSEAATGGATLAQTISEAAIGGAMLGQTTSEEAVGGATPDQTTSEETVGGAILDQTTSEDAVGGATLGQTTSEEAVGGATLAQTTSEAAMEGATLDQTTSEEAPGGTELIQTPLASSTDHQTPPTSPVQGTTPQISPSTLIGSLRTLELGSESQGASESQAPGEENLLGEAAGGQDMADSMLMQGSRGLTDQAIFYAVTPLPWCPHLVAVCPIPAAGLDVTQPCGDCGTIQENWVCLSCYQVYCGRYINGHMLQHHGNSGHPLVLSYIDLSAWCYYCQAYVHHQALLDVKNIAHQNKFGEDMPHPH
Kind of assay: Inhibition of HDAC6 (unknown origin).

Assay [14] concerns Cortical neurone. Kind of assay: Neuroprotective activity against glutamate-induced mouse primary cortical neurons assessed as neuronal viability incubated for 24 hrs by MTT assay. It is filed as functional, cell-based.
For assay [15], the target named is T1, Histone deacetylase 2. Kind of assay: Inhibition of HDAC2 (unknown origin).
Assay [16] addresses High affinity cGMP-specific 3',5'-cyclic phosphodiesterase 9A (Homo sapiens, UniProt O76083). Kind of assay: Inhibition of PDE9 (unknown origin).
Assay [17] can be described thus: Inhibition of PDE5 (unknown origin). Details: species or system Homo sapiens.
The target of assay [18] is 72 kDa type IV collagenase (Homo sapiens, UniProt P08253). Kind of assay: Inhibition of MMP2 (unknown origin) using chromogenic substrate incubated for 1 hr followed by substrate addition measured for 30 mins by microplate photometry.
Assay [19] addresses T5, Histone deacetylase 8 (Homo sapiens, UniProt Q9BY41).
T5 sequence (Q9BY41 whole entry): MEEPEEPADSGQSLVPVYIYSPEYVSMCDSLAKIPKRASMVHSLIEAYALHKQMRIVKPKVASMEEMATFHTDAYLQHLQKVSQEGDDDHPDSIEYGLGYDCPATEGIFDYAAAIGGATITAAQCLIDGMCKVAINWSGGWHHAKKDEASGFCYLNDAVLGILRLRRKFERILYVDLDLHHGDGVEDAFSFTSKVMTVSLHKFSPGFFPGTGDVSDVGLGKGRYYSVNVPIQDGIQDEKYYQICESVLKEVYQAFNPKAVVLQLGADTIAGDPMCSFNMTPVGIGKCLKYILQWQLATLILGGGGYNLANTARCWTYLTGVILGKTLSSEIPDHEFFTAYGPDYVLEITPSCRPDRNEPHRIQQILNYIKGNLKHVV
Kind of assay: Inhibition of recombinant human HDAC8 using Fluor-de-lys substrate by fluorescence based microplate reader analysis.

The target of assay [20] is Histone deacetylase 4 (Homo sapiens, UniProt P56524). As to the kind of experiment: Inhibition of HDAC4 (unknown origin).
Sequence of Histone deacetylase 4 (P56524 whole entry): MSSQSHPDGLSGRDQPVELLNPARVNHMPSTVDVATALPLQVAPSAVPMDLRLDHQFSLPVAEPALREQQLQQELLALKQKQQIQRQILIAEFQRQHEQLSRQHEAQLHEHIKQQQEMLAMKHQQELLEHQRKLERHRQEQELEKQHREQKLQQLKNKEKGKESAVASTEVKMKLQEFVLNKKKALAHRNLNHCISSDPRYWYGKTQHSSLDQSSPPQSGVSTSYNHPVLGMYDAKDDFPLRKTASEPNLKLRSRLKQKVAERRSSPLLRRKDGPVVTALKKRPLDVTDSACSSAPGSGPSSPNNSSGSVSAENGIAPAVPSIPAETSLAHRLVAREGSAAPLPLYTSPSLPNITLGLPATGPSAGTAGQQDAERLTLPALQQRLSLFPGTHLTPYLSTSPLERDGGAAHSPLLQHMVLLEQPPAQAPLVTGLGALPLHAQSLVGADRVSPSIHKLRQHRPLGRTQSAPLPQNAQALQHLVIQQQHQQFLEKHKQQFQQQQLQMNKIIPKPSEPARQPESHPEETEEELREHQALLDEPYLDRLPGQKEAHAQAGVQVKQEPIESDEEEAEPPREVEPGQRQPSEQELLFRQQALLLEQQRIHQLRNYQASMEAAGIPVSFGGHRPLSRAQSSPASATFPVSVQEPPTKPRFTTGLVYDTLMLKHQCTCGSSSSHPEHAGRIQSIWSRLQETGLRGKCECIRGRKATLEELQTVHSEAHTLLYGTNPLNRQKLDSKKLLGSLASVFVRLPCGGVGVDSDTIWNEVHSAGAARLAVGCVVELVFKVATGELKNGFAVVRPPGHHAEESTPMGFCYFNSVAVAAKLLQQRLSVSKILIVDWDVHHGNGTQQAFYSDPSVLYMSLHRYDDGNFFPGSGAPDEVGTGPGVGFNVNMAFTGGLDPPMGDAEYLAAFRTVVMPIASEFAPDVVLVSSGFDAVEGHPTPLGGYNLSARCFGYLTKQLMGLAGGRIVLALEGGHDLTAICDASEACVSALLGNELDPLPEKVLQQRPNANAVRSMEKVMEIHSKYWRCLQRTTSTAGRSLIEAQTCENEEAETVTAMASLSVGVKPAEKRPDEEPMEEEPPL
The subject of assay [21] is Panel NCI-60 (60 carcinoma cell lines). As to the kind of experiment: Cytotoxicity against human Panel NCI-60 (60 carcinoma cell lines) cells assessed as cell growth inhibition. Type of assay: functional, cell-based.
Assay [22] addresses Histone deacetylase 5 (Homo sapiens, UniProt Q9UQL6). Kind of assay: Inhibition of HDAC5 (unknown origin).
Assay [23] addresses T3, Histone deacetylase 3. Kind of assay: Inhibition of HDAC3 (unknown origin).
The subject of assay [24] is DU-145. Kind of assay: Cytotoxicity against human DU-145 cells assessed as cell growth inhibition. It is filed as functional, cell-based.
Assay [25] concerns the target T5, Histone deacetylase 8. As to the kind of experiment: Inhibition of HDAC8 (unknown origin).
For assay [26], the system named is SMMC-7721. As to the kind of experiment: cells. Type of assay: functional, cell-based. The following applies: Homo sapiens, SMMC-7721, 48 h.

This passage reports IC50, Ki and EC50 results from ChEMBL document CHEMBL5113372, “Paradigm shift of "classical" HDAC inhibitors to "hybrid" HDAC inhibitors in therapeutic interventions” (Eur J Med Chem, 2021).

Usually IC50 stands for the concentration that gives 50% inhibition. As usually defined, the Ki is the equilibrium dissociation constant of an inhibitor or competing ligand from its target. For orientation: EC50 means the midpoint of the concentration-response curve.

Structures are written as SMILES. Bounds are passed on as bounds.

T1 sequence (Q92769 whole entry): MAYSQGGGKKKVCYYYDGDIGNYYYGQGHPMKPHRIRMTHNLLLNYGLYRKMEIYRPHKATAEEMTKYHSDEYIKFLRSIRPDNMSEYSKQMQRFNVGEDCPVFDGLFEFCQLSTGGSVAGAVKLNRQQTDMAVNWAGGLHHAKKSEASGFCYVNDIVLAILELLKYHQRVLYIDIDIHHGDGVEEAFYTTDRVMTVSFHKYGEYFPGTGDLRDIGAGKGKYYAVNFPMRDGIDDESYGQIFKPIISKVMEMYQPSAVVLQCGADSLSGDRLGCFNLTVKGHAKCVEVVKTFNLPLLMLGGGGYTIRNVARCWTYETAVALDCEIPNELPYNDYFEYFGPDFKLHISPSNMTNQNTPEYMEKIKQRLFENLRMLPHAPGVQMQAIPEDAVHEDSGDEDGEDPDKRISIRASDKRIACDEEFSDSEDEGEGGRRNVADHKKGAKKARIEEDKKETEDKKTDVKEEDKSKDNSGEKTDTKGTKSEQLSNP
Sequence of High affinity cGMP-specific 3',5'-cyclic phosphodiesterase 9A (O76083 whole entry): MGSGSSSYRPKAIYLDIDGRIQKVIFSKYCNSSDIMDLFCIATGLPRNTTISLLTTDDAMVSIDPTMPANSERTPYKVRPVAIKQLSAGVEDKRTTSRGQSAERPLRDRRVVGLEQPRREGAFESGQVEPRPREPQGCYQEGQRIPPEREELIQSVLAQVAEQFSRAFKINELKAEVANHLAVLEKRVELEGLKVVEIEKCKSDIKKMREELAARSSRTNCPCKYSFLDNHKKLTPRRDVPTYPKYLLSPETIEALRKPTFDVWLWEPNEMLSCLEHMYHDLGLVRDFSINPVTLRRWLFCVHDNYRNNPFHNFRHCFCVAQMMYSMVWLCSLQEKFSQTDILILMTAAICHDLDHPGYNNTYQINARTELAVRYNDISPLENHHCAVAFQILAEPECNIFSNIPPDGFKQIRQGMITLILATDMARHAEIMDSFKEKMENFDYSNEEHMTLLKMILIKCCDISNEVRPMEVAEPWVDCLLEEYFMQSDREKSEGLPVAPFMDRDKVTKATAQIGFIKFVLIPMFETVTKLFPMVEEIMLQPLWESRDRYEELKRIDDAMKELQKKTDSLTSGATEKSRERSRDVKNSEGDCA
Sequence of Histone deacetylase 5 (Q9UQL6 whole entry): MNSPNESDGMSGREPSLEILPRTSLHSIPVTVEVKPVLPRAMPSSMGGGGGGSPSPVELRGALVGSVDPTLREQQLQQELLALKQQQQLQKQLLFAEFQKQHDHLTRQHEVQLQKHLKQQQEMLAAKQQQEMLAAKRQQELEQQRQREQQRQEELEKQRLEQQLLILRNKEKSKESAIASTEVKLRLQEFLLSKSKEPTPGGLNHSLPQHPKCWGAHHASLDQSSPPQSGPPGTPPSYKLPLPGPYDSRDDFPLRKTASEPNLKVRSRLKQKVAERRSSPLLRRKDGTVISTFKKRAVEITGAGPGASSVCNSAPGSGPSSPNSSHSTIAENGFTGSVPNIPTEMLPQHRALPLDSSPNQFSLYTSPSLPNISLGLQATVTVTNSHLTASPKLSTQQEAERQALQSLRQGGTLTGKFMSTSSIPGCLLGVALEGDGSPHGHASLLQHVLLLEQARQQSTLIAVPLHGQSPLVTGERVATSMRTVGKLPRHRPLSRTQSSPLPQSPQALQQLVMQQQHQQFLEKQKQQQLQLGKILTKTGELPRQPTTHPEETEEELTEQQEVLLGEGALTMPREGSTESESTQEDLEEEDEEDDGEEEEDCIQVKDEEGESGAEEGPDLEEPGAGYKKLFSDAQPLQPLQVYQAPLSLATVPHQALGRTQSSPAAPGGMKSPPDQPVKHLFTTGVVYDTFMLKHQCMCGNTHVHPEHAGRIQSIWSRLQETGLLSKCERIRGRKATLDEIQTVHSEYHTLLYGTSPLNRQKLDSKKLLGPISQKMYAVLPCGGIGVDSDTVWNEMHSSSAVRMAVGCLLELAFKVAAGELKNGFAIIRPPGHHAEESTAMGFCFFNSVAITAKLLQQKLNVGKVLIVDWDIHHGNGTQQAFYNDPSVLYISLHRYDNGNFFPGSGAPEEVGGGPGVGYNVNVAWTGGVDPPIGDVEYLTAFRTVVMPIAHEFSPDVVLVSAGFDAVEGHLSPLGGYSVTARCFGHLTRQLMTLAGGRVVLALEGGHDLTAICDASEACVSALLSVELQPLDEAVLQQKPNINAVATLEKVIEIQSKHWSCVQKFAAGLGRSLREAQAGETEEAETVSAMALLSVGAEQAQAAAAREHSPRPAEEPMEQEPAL

On to `COc1cc([C@@H]2c3cc4c(cc3C[C@H]3COC(=O)[C@@H]32)OCO4)cc(OC)c1OC(=O)CC(=O)NCc1ccc(C(=O)Nc2ccccc2N)cc1`, for which the concentration for half-maximal inhibition (IC50) in assay [1] came to 1.73 µM; in assay [2], 11.1 µM; in assay [3], 0.036 µM; in assay [4], 0.037 µM; in assay [5], 1 µM.
Consider `CCN1CCN(c2cc(Nc3ncc(C(=O)Nc4ccc(F)cc4N)s3)ncn2)CC1`, for which the concentration for half-maximal inhibition (IC50) in assay [6] is 0.6 µM; in [7], 10.4 µM; in assay [8] it was 0.81 µM; in assay [9], 2.26 µM.
With `CC(=O)SCCCCCCOc1ccc2c(c1)N(C)[C@@H](C(C)C)C(=O)N[C@H](CO)C2`, the Ki in assay [10] is 0.0087 µM.
Consider `O=C(CCCCNC(=S)Nc1ccc(/C=C/C(=O)c2cccnc2)cc1)NO`, for which the IC50 is 3.38 µM in assay [11], 13.3 µM in assay [12] and 4.1 µM in assay [13]. Also, the concentration for a half-maximal effect (EC50) in assay [14] was 3.7 µM.
As for `C[C@H]1CN(Cc2ccc(C(=O)NO)cc2)C[C@@H]1c1nc2c(cnn2C2CCCC2)c(=O)[nH]1`, the IC50 in [11] is 0.593 µM; in assay [15] it was 3.53 µM; in assay [16] it was 0.107 µM; in assay [17] it was more than 10 µM; in [13], 0.04 µM.
For `C[C@@H](c1nc2c(cnn2C2CCCC2)c(=O)[nH]1)N1CC(Cc2ccc(C(=O)Nc3ccccc3N)cc2)C1`, the IC50 in assay [11] was 0.099 µM; in assay [15], 0.545 µM; in assay [16], 0.057 µM; in [17], more than 10 µM; in assay [13], more than 10 µM.
For `COc1ccc(CC(=O)N[C@@H](CCC(=O)O)C(=O)NCc2ccccc2)cc1`, the half-maximal inhibitory concentration (IC50) in [18] is 83.7 µM; in assay [19], 3.8 µM.
Consider `Cn1c(CCCC(=O)O)nc2cc(N(CCCl)CCCl)ccc21` [BENDAMUSTINE], for which the IC50 in [11] is 0.01 µM; in assay [20], 0.01 µM; in assay [15] it was 0.01 µM; in assay [21] it was 2.2 µM; in [22] it was 0.01 µM; in assay [23] it was 0.01 µM. This compound showed a concentration for half-maximal inhibition (IC50) in assay [13] of 0.01 µM.
In the case of `COc1cccc2c1C(=O)c1c(O)c3c(c(O)c1C2=O)C[C@@](O)(C(C)=O)C[C@@H]3O[C@H]1C[C@H](N)[C@H](O)[C@H](C)O1` [DAUNORUBICIN], the 50% inhibitory concentration (IC50) in assay [11] was found to be 0.047 µM; in assay [24], 0.13 µM; in assay [25], 0.22 µM; in assay [13], 0.02 µM.
With `CC(C)=CCC/C(C)=C/CC/C(C)=C/CSc1ccccc1C(=O)O` [SALIRASIB], half-maximal inhibition in assay [26] (IC50) required 6.7 µM.
